# Measured values as given in paper PMC6868281, “In vivo clonal expansion and phenotypes of hypocretin-specific CD4^+ T cells in narcolepsy patients and controls” (Nature Communications, 2019).
# Columns and labels:
# [1] = test system: CD4+ T cells from T1N donors; experiment: In vitro peptide stimulation of CD4+ T cells with peptide-loaded fixed T2DQ6 cells, then DQ6-peptide tetramer staining; assay type: cell-based, human; conditions: for Frequency of corresponding DQ6-peptide tetramer+/CD4+ T cells after in vitro stimulation with the peptide: T2DQ6 pulsed with 1 μM peptide, co-culture with CD4+ T cells of T1N donors, IL-7/IL-2, with vs without peptide, n = 13 donors (HCRT peptides)
# Method: Fig. 3 Tetramer^+/CD4^+ T cells in DQ6^+ donors. a Dot-plots of CD4^+ T cells stimulated in vitro with the indicated peptides followed by staining with the indicated tetramers. Frequencies (%) of tetramer^+/CD4^+ T cells are indicated. b Comparison between frequencies of tetramer^+ T cells from the same T1N donor (paired as indicated) with and without peptide stimulation. Significance (P < 0.05, bolded) is determined using the paired samples t-test (n = 13 donors). c Enrichment (with peptide stimulation vs. without) of DQ6-HCRT56–69 tetramer^+/CD4^+ T cells in HCRT87–100 peptide stimulated culture. d Frequencies or e tetramer-binding ranks (mean index fluorescence intensity) of tetramer^+ T cells from patients and controls (sample information summarized in Table 1) stained with the indicated tetramers. Statistical analysis compares control and patient samples within each tetramer specificity. Significance (P < 0.05, bolded) is determined using the unequal variance t-test. The error bar represents mean ± SEM
# To test for the presence of DQ6-HCRTpeptide tetramer^+/CD4^+ T cells, a peptide-loaded antigen-presenting cell (APC) line T2DQ6 (fixed to limit APC proliferation) was co-cultured with T cells for DQ6-restricted antigen stimulation. T2DQ6 was constructed by stable transfection of DQ6 (DQA1*01:02/DQB1*06:02) into T2, a class II-deficient TxB hybrid cell[31]. T2DQ6 cells were maintained in IMDM, GlutaMAX supplemented media (Thermo Fisher Scientific) with 10% HI FBS, 1% penicillin/streptomycin (P/S) and 1 mg/ml G418 (to maintain selective pressure on DQ6 transfectants). To load antigen, T2DQ6 cells were pulsed with peptides (i.e., EBV486–500, HCRT56–69, HCRT87–100, synthesized by Genscript) at 1 μM final concentration and incubated for 6 h at 37 °C. After peptide loading, 10 million T2DQ6 cells were washed with phosphate buffered saline (PBS) and then fixed by incubating with 0.025% glutaraldehyde in 2 ml PBS at RT for 30 s. After the addition of another 2 ml PBS, the cells were incubated for another 10 min at RT. Fixed T2DQ6 was washed twice with PBS and once with complete RPMI (RPMI 1640 medium supplemented with 10% HI human AB serum, 2 mM glutamine and 1% PS, Thermo Fisher Scientific) before mixing with CD4^+ T cells. Human PBMCs frozen in NUNC tubes were thawed quickly at 37 °C and added slowly to 10 ml warm complete RPMI. PBMCs were pelleted and resuspended in cold buffer for CD4^+ T cell isolation. Cells were isolated from the PBMCs by negative selection, using the CD4^+ cell isolation kit, according to the manufacturer’s instructions (Miltenyi Biotec). […]
# [2] = target: soluble DQ6 (HLA-DQA1*01:02/DQB1*06:02) (Homo sapiens, UniProt P01909+P01920, A157G/A45G/C70R/E118A/E183D/E77G/F83G/G63E/H151Q/H199R/H252R/H253Q/I129T/I235V/I88M/INS77G/K197Q/L117V/L119F/L178F/L71W/L74F/L85Q/L91A/L98M/N214S/P87R/Q116E/Q76K/R102G/R240Q/R75S/R78G/S102Y/S185I/S41F/S97I/T121G/T122I/T172A/T86R/V229M/V68A/V73E/Y34C/Y41F/Y58L); experiment: Peptide competition assay: inhibition of DQ6 binding of biotinylated EBV486–500; conditions: test peptide 40 μM, 20 h
# Method: To identify DQ6-restricted T epitopes in prepro-HCRT (the HCRT precursor), we used a modified version of the peptide-loading assay[31] in which HCRT peptides were tested for the ability to inhibit DQ6-binding of EBV486–500, a known DQ6-binding epitope derived from Epstein-Bar virus. We evaluated overlapping 15-mer peptides, offset by four amino acids (aa), covering the entire prepro-HCRT sequence (Supplementary Data 1). […] These were consistent with in silico peptide-binding predictions using the NetMHCIIpan3.2 software[33] (Supplementary Fig. 1a–c). The nine peptides span five regions (i–v) of prepro-HCRT. A strong binder (>75% competition), HCRT1–15, was within the signal peptide region (i) and contained a 9-aa core, […], previously shown to bind DQ6 by X-ray structure. Two overlapping peptides span the C-terminus of the signal peptide and N-terminus of the secreted HCRT1 neurotransmitter. This region (ii) contained three possible registers as predicted by NetMHCIIpan3.2 using nonamers (Supplementary Fig. 1d). […]
# Fig. 2 DQ6-binding cores in prepro-HCRT and their structural impacts. a Thirty overlapping peptides covering prepro-HCRT were added, individually, into a reaction containing soluble DQ6, bio-EBV486–500 peptide, and HLA-DM (a peptide loading catalyst). DQ6-associated bio-EBV486–500 was measured at steady state by ELISA[31]. %Competition = 1−%DQ6/EBV binding. […]
# [3] = test system: TCR27 (TRAJ24+ TCR) in J76-NFATRE-luc Jurkat cells; experiment: T cell activation assay using NFAT-RE luciferase reporter, TCR27 Jurkat transfectants with K562-DQ6 APCs; assay type: cell-based, human; parameters: dose or concentration left out as unconfirmed; conditions: HCRT peptide, 1 × 10^5 K562-DQ6 APCs + 1 × 10^5 TCR27 J76-NFATRE-luc cells, 37 °C, 1 day; Nano-Glo chemiluminescence
# Description: Fig. 6 Validation of tetramer binding and TCR signaling. a TCRs tested by transfection into Jurkat-luciferase reporter system. b Dot-plots of Jurkat transfectants expressing TCRs as shown in a. Expression of GFP indicates a successful transfection of plasmids directing the expression of TCRs. c Tetramer staining of TCR^+ Jurkat cells with percentages of tetramer^+ cells indicated. d MFIs of the tetramer-associated signal on the surface of TCR^+ cells are compared. e Jurkat cells expressing the indicated TCR were incubated with DQ6-expressing APCs (HLA class II^- K562 cells transfected with DQ6) in the presence of HCRT peptides or control stimuli: PBS (negative) or anti-CD3/anti-CD28 Abs (positive). Luciferase activity reflecting TCR-mediated signaling was measured and analyzed as previously described. […] Significance (P < 0.05, bolded) is determined using t-test comparing the indicated TCR and the TCR control
# To encode the entire α/β chains of a candidate TCR, the nucleotide sequences for CDR3α and CDR3β (Supplementary Data 3) were incorporated in frame with the corresponding V(D)J genes (IMGT/V-QUEST[43]). TCRα/β genes were then synthesized and cloned into a plasmid pEF1a-TCRA_2A_TCRB_IRES-AcGFP1 (by GenScript). Each reconstructed plasmid uses a mammalian promoter, EF1a to direct co-expression of α and β chains of one candidate TCR. TCRA and TCRB are separated by the 2A self-cleaving peptide sequence. For selection purposes, the plasmid also encodes the green fluorescence protein (GFP) and neomycin resistance gene, with expression driven by separate promoters. […]
# The TCR transfectants of J76-NFATRE-luc cells expresses the NFAT-RE (response element)-luciferase reporter gene allowing the conversion of T cell activation signaling to luciferase activity. […] The co-culture was incubated with various stimuli at 37 °C for 1 day before quantification of the luciferase activity. […] The mixture was then transferred to a flat-bottom white 96-well plate (Costar) for a measurement of chemiluminescence using a plate reader.
Substance,Frequency of corresponding DQ6-peptide tetramer+/CD4+ T cells after in vitro stimulation with the peptide [1],TCR-mediated signaling (luciferase activity) of TCR27 transfectants [3],further results
AGNHAAGILTLGKR [HCRT56–69],significantly increased,–,–
"ALLSSGAAAQPLPDC [Hcrt25-39, 15-mer overlapping peptide of prepro-HCRT]",–,–,"DQ6 binder class by %Competition ([2]; same assay as E1, pH 4.6, 37 °C): strong"
EBV486-500: known DQ6-binding epitope derived from Epstein-Barr virus nuclear antigen; positive control peptide [reference compound],enrichment,–,–
MNLPSTKVSWAAV [HCRT1–13],–,null function,–
"MNLPSTKVSWAAVTL [Hcrt1-15, 15-mer overlapping peptide of prepro-HCRT]",–,–,"%Competition (inhibition of the indicator EBV peptide binding to DQ6) ([2]; 1 μM biotinylated EBV486–500, 25 nM thrombin-cleaved DQ6-CLIP87–101, 100 nM DM, acetate pH 4.6, 37 °C, DELFIA Eu-streptavidin time-resolved fluorescence, %Competition = 1−%DQ6/EBV binding, mean, n = 4): > 75%"
SGNHAAGILTM-NH2 [HCRT87–97-NH2],–,stronger signaling,–
SGNHAAGILTMGRR [HCRT87–100],significantly increased,moderate TCR-mediated signaling,"DQ6-HCRT56–69 tetramer+/CD4+ T cells in HCRT87–100 peptide stimulated culture ([1]; with peptide stimulation vs without, some T1N donors): in vitro enrichment"
